According to patent US6734175B2, “Treatments for obesity and methods for identifiying compounds useful for treating obesity” (Pfizer Inc., priority 2000, dated 2004):

Assays:
[1] = target: T1, melanocortin-4 receptors (Homo sapiens, UniProt P32245); assay: [125I]AGRP competition binding assay; conditions: particularly melanocortin-4 receptors; qualitative statement
T1 construct: host or cells: membranes from unnamed cells expressing the receptor
Description: (§1) The first radioligand binding assay is an [^125I]AGRP competition binding assay. Compounds that attenuate binding of [^125I]AGRP or AGRP would be detected in this assay. It is noted that compounds can attenuate the binding of AGRP to melanocortin 3 and/or 4 receptors by binding to melanocortin 3 and/or 4 receptors or by binding to AGRP itself. The second radioligand binding assay is an assay using radiolabeled melanocortin ligands, for example, [^125I]norleucine D-phenylalanine melanocyte stimulating hormone ([^125I]NDP-MSH). Membranes prepared from cells expressing either melanocortin 3 or 4 receptors are used in the radioligand binding assays. The preparation and use of [^125I]AGRP and [^125I]NDP-MSH is well known in the art. See, for example, Dang et al., Molecular Endocrinology, 13, 148-155 (1999). In addition, the preparation and use of membranes from cells expressing either melanocortin 3 or 4 receptors are also well known in the art. See, Bass, et al., Molecular Pharmacology, 50, 709-715 (1996).
[^125I] AGRP Competition Binding Assay
(§2) Specific Activity of [^125I]AGRP is 2200 Ci/mmole. The final concentration of [^125I]AGRP is 100 pM. Therefore, a 2 nM (20×) stock needs to be made in binding buffer. The concentration of [^125I]AGRP varies from 40-60 nM. [^125I]AGRP can be obtained from New England Nuclear, Boston, Mass.
(§3) The competition assay can be run using 96 well plates. […]

[2] = test system: melanocortin receptors; assay: [125I]NDP-MSH competition binding assay; conditions: qualitative statement
Description: as §1
[^125I]NDP-MSH Competition Binding Assay
as §2, with “of [^125I]NDP-MSH” for “of [^125I]AGRP”, “is 250” for “is 100”, “a 5” for “a 2”, “nM. [^125I]NDP-MSH” for “nM. [^125I]AGRP”
as §3

T1 sequence (P32245 whole entry): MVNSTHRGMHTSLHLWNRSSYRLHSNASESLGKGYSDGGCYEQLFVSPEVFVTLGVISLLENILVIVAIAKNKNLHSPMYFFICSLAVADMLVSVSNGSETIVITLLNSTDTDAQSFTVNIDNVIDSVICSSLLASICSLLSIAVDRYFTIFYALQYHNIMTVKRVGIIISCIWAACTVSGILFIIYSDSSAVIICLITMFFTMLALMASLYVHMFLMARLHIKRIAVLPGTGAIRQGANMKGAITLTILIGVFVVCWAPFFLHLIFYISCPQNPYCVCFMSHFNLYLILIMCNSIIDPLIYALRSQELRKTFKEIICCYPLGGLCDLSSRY

Structure (SMILES): O=[N+]([O-])c1ccc(N2C3c4ccccc4CCN3N(c3ccc([N+](=O)[O-])cc3)C3c4ccccc4CCN32)cc1 (centres unmarked) [8,16-bis-(4-nitro-phenyl)-5,6,8,8a,13,14,16,16a-octahydro-[1,2,4,5]tetrazino[6,1-a;3,4-a′]diisoquinoline]
- binding of agouti-related protein to melanocortin receptors [1]: attenuates the binding of agouti-related protein to melanocortin receptors
- binding of α-melanocyte stimulating hormone to melanocortin receptors [2]: does not attenuate the binding of α-melanocyte stimulating hormone to melanocortin receptors
